{"source": "patent US20120040930A1", "about": "“TETRACYCLIC TERPENE SERIES COMPOUNDS, METHODS FOR PREPARING SAME, USES THEREOF AS MEDICINES AND PHARMACEUTICAL COMPOUNDS CONTAINING SAME” (priority 2005, published 2012)", "key": {"[1]": {"target": "T1, human serum butyrylcholinesterase (BChE) (Homo sapiens, UniProt P06276)", "T1 construct": "BChE isolated from human serum; from tissue; host or cells: human serum", "T1 sequence (P06276 29-602)": "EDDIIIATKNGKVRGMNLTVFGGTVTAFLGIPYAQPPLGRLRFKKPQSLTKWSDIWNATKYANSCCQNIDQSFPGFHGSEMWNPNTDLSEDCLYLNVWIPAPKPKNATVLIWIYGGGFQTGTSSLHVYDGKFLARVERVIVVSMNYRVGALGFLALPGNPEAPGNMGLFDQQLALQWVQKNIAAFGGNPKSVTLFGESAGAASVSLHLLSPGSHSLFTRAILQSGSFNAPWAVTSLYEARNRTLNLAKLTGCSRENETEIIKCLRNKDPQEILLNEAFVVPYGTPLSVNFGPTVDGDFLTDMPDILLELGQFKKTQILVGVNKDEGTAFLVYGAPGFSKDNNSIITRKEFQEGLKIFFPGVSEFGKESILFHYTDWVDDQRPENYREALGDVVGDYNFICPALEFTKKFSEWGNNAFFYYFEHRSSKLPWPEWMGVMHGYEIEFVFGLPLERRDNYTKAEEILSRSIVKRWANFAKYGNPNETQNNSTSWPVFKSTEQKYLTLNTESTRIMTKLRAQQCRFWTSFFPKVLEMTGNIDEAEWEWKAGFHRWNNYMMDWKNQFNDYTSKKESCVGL", "assay": "biochemical"}, "[2]": {"target": "T2, acetylcholinesterase (AChE) isolated from Electrophorus electricus (Electrophorus electricus, UniProt O42275)", "T2 construct": "AChE isolated from Electrophorus electricus; from tissue", "T2 sequence (O42275 24-633)": "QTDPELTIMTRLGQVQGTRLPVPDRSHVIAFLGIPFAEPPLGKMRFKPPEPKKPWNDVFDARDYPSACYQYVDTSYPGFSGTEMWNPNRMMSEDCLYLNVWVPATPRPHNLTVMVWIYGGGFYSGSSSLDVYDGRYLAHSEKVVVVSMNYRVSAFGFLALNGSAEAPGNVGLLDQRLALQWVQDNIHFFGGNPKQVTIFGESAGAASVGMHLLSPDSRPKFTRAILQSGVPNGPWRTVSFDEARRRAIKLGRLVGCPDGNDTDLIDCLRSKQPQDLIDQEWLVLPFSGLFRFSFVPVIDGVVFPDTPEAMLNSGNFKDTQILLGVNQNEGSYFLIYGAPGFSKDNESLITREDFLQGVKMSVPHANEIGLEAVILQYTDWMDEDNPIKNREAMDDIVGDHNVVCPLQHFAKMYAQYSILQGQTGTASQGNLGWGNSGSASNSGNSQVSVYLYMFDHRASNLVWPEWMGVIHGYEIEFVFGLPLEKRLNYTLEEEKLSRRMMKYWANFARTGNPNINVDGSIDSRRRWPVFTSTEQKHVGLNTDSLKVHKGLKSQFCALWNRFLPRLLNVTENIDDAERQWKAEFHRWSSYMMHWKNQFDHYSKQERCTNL", "assay": "biochemical"}, "[3]": {"details": "human serum BChE, read-out: BChE"}, "[4]": {"details": "AChE isolated from Electrophorus electricus, read-out: AChE IC50"}}, "note": "Where two headings read alike, the source gives them in different places."}
{"smiles": "CCC(=O)N[C@H]1CC=C2C[C@H]3C(=O)C[C@]4(C)[C@@H]([C@H](C)N(C)C)[C@H](O)C[C@@]4(C)[C@@H]3CC[C@H]2[C@]1(C)CO", "note": "[Compound 7c, (20S)-10(9->1)abeo-4α-hydroxymethyl-4,14α-dimethyl-20-dimethylamino-3-propionylamino-5α,9-pregn-1(10)-en-16α-ol-11-one]", "values": [{"measurement": "IC50", "setting": "[1]; [3]", "value": "> 10", "unit": "µM"}, {"measurement": "IC50", "setting": "[2]; [4]", "value": "> 1", "unit": "µM"}]}
{"smiles": "CC(C)C(=O)N[C@H]1CCC23C[C@]24C(=O)C[C@]2(C)[C@@H]([C@H](C)N(C)C)[C@H](O)C[C@@]2(C)[C@@H]4CC[C@H]3[C@]1(C)COCc1ccccc1", "note": "(some centres unmarked) [Compound 27]", "values": [{"measurement": "IC50", "setting": "[1]; [3]", "value": 5.2, "unit": "µM"}, {"measurement": "IC50", "setting": "[2]; [4]", "value": 16.8, "unit": "µM"}]}
{"smiles": "CC(=O)O[C@@H]1C[C@@]2(C)[C@@H]3CC[C@@H]4C5(CC[C@H](NC(=O)C(C)C)[C@@]4(C)COS(=O)(=O)c4ccc(C)cc4)C[C@@]35C(=O)C[C@]2(C)[C@H]1[C@H](C)N(C)C", "note": "(stereo partly drawn) [Compound 23, (20S)-16α-acetyl-3-isobutyrylamino-9,19-cyclo-4α-hydroxytosylmethyl-4,14α-dimethyl-20-dimethylamino-5α,9-pregnan-11-one]", "values": [{"measurement": "IC50", "setting": "[1]; [3]", "value": "> 100", "unit": "µM"}, {"measurement": "IC50", "setting": "[2]; [4]", "value": 4.37, "unit": "µM"}]}
{"smiles": "CC(=O)O[C@@H]1C[C@@]2(C)[C@@H]3CC[C@@H]4C5(CC[C@H](NC(=O)C(C)C)[C@@]4(C)CO)C[C@@]35C(=O)C[C@]2(C)[C@H]1[C@H](C)N(C)C", "note": "(stereo partly drawn) [Compound 13, (20S)-16α-acetyl-3-isobutyrylamino-9,19-cyclo-4α-hydroxymethyl-4,14α-dimethyl-20-dimethylamino-5α,9-pregnan-11-one]", "values": [{"measurement": "IC50", "setting": "[1]; [3]", "value": "> 1", "unit": "µM"}, {"measurement": "IC50", "setting": "[2]; [4]", "value": "> 10", "unit": "µM"}]}
{"smiles": "CC(C)C(=O)NC1CC[C@]23CC24C(=O)C[C@]2(C)[C@@H]([C@H](C)N(C)C)[C@H](O)C[C@@]2(C)[C@@H]4CC[C@H]3[C@]1(C)CO", "note": "(stereo in doubt) [Compound 2, (20S)-3-isobutyrylamino-9,19-cyclo-4α-hydroxymethyl-4,14α-dimethyl-20-dimethylamino-5α,9-pregnan-16α-ol-11-one]", "values": [{"measurement": "IC50", "setting": "[1]; [3]", "value": "> 10", "unit": "µM"}, {"measurement": "IC50", "setting": "[2]; AChE IC50", "value": "> 10", "unit": "µM"}]}
{"smiles": "CC(=O)O[C@@H]1C[C@@]2(C)[C@@H]3CC[C@@H]4C5(CC[C@H](NC(=O)C(C)C)[C@@]4(C)C=O)C[C@@]35C(=O)C[C@]2(C)[C@H]1[C@H](C)N(C)C", "note": "(stereo partly drawn) [Compound 14, (20S)-16α-acetyl-3-isobutyrylamino-9,19-cyclo-4α-formyl-4,14α-dimethyl-20-dimethylamino-5α,9-pregnan-11-one]", "values": [{"measurement": "IC50", "setting": "[1]; [3]", "value": "> 1", "unit": "µM"}, {"measurement": "IC50", "setting": "[2]; [4]", "value": "> 1", "unit": "µM"}]}
{"smiles": "C[C@@H]([C@H]1[C@H](O)C[C@@]2(C)[C@@H]3CC[C@@H]4C(=CC[C@H](NC(=O)C(C)(C)C)[C@@]4(C)CO)C[C@H]3C(=O)C[C@]12C)N(C)C", "note": "[Compound 7f, (20S)-10(9->1)abeo-4α-hydroxymethyl-4,14α-dimethyl-20-dimethylamino-3 (2,2-dimethylpropionylamino)-5α,9-pregn-1(10)-en-16α-ol-11-one]", "values": [{"measurement": "IC50", "setting": "[1]; [3]", "value": "> 1", "unit": "µM"}, {"measurement": "IC50", "setting": "[2]; [4]", "value": 4.83, "unit": "µM"}]}
{"smiles": "CCC(C)C(=O)N[C@H]1CCC23C[C@]24C(=O)C[C@]2(C)[C@@H]([C@H](C)N(C)C)[C@H](O)C[C@@]2(C)[C@@H]4CC[C@H]3[C@]1(C)CO", "note": "(stereo partly drawn) [Compound 6h, (20S)-9,19-cyclo-4α-hydroxymethyl-4,14α-dimethyl-20-dimethylamino-3 (2-methylbutyrylamino)-5α,9-pregnan-16α-ol-11-one]", "values": [{"measurement": "IC50", "setting": "[1]; [3]", "value": 0.121, "unit": "µM"}, {"measurement": "IC50", "setting": "[2]; [4]", "value": "> 100", "unit": "µM"}]}
{"smiles": "C[C@@H]([C@H]1[C@H](O)C[C@@]2(C)[C@@H]3CC[C@@H]4C(=CC[C@@H]5N=C(C6CCCCC6)OC[C@]54C)C[C@H]3C(=O)C[C@]12C)N(C)C", "note": "[Compound 8d, (20S)-10(9->1)abeo-4,14α-dimethyl-20-dimethylamino(2′-cyclohexyl-4′,4′-dihydro[3′,1′]oxazin)-5α,9-pregn-1(10)-en-16α-ol-11-one]", "values": [{"measurement": "IC50", "setting": "[1]; [3]", "value": 0.375, "unit": "µM"}, {"measurement": "IC50", "setting": "[2]; [4]", "value": 0.403, "unit": "µM"}]}
{"smiles": "CCC(C)C(=O)N[C@H]1CC=C2C[C@H]3C(=O)C[C@]4(C)[C@@H]([C@H](C)N(C)C)[C@H](O)C[C@@]4(C)[C@@H]3CC[C@H]2[C@]1(C)CO", "note": "(mixture of isomers) [Compound 7h, (20S)-10(9->1)abeo-4α-hydroxymethyl-4,14α-dimethyl-20-dimethylamino-3 (2-methylbutyrylamino)-5α,9-pregn-1(10)-en-16α-ol-11-one]", "values": [{"measurement": "IC50", "setting": "[1]; [3]", "value": 1.93, "unit": "µM"}, {"measurement": "IC50", "setting": "[2]; AChE IC50", "value": 0.12, "unit": "µM"}]}
{"smiles": "CC(C)[C@H]1N[C@H]2CCC34C[C@]35C(=O)C[C@]3(C)[C@@H]([C@H](C)N(C)C)[C@H](O)C[C@@]3(C)[C@@H]5CC[C@H]4[C@]2(C)CO1", "note": "(stereo partly drawn) [Compound 9, (20S)-9,19-cyclo-4,14α-dimethyl-20-dimethylamino(2′β-isopropyl-1′,2′,4′,4′-tetrahydro[3′,1′]oxazin)-5α,9-pregnan-16α-ol-11-one]", "values": [{"measurement": "IC50", "setting": "[1]", "value": "> 10", "unit": "µM"}, {"measurement": "IC50", "setting": "[2]; [4]", "value": 2.38, "unit": "µM"}]}
{"smiles": "C[C@@H]([C@H]1[C@H](O)C[C@@]2(C)[C@@H]3CC[C@@H]4C(=CC[C@H](NC(=O)Cc5ccccc5)[C@@]4(C)CO)C[C@H]3C(=O)C[C@]12C)N(C)C", "note": "[Compound 7g, (20S)-10(9->1)abeo-4α-hydroxymethyl-4,14α-dimethyl-20-dimethylamino-3 (phenylacetylamino)-5α,9-pregn-1(10)-en-16α-ol-11-one]", "values": [{"measurement": "IC50", "setting": "[1]; [3]", "value": "> 10", "unit": "µM"}, {"measurement": "IC50", "setting": "[2]; [4]", "value": "> 1", "unit": "µM"}]}
{"smiles": "C[C@@H]([C@H]1[C@H](O)C[C@@]2(C)[C@@H]3CC[C@@H]4C5(CC[C@H](NC(=O)C6CCCCC6)[C@@]4(C)CO)C[C@@]35C(=O)C[C@]12C)N(C)C", "note": "(stereo partly drawn) [Compound 6d, (20S)-3-(cyclohexanecarboxylamino)-9,19-cyclo-4α-hydroxymethyl-4,14α-dimethyl-20-dimethylamino-5α,9-pregnan-16α-ol-11-one]", "values": [{"measurement": "IC50", "setting": "[1]; [3]", "value": "> 5", "unit": "µM"}, {"measurement": "IC50", "setting": "[2]; [4]", "value": "> 10", "unit": "µM"}]}
